Assay results: paper PMC8621172, “Manipulating Estrogenic/Anti-Estrogenic Activity of Triphenylethylenes towards Development of Novel Anti-Neoplastic SERMs” (International Journal of Molecular Sciences, 2021)
“Also recorded” adds a separate entry of the source.

Legend:
NSCLC cell lines = assay: NCI five-dose assay, NSCLC subpanel; type: cell-based; details: Homo sapiens
Description: (§1) All compounds were subjected to the NCI in vitro disease-oriented human cells screening panel assay. The human tumor cell lines of the cancer-screening panel are grown in RPMI 1640 medium containing 5% fetal bovine serum and 2 mM L-glutamine. For a typical screening experiment, cells are inoculated into 96-well microtiter plates in 100 μL at plating densities ranging from 5000 to 40,000 cells/well depending on the doubling time of individual cell lines. After cell inoculation, the microtiter plates are incubated at 37 °C, 5% CO2, 95% air, and 100% relative humidity for 24 h prior to the addition of experimental drugs. After 24 h, two plates of each cell line are fixed in situ with TCA to represent a measurement of the cell population for each cell line at the time of drug addition. Experimental drugs are solubilized in dimethyl sulfoxide at 400-fold the desired final maximum test concentration and stored frozen prior to use. At the time of drug addition, an aliquot of frozen concentrate is thawed and diluted to twice the desired final maximum test concentration with complete medium containing 50 μg/mL gentamicin. […] Bound stain is subsequently solubilized with a 10 mM trizma base, and the absorbance is read on an automated plate reader at a wavelength of 515 nm. […] Three response parameters (GI50, TGI, and LC50) were calculated for each cell line.

renal cell lines = assay: NCI five-dose assay, renal subpanel; type: cell-based; details: Homo sapiens
Description: as §1

MDA-MB-468 = assay: NCI five-dose assay, TNBC cell line MDA-MB-468; type: cell-based, human; details: MDA-MB-468, five-dose assay
Description: as §1

prostate cell lines = assay: NCI five-dose assay, prostate subpanel; type: cell-based; details: Homo sapiens
Description: as §1

ovariectomized rats = assay: Uterotrophic assay in ovariectomized rats; type: in vivo, rat; details: for uterotrophic effect (in words): compared to TAM; for Relative uterus wet weight: s.c. 10 mg/kg/d BW for three days
Text: Compounds showing appreciable estrogenic activity in the YES assay and that were able to inhibit the growth of MCF-7 cancer cell lines yet with low estrogenic activity on Ishikawa endometrial adenocarcinoma cells might serve as potential ideal SERMS. Compounds 12 and 19 were therefore selected for the in vivo experiments to assess their estrogenic properties in an uterotrophic assay in an ovariectomized rat model. The in vivo uterotrophic rat assay is the gold standard assay to test for the estrogenic effect of compounds; the assay uses adult ovariectomized (OVX) female rats where there is no significant source of endogenous estrogens. Compounds that have estrogenic effects cause uterotrophic response due to the imbibition of water and growth of the uterine cells. Statistically significant uterine weight increases compared to controls provide a positive result. Adopting both in vivo and in vitro assays was inevitable due to the limitations of each assay. The cell lines are not properly able to recapitulate the in vivo environment of the uterus within the body. On the other hand, the rat uterotrophic assay merely considers the uterine weight gain as an endpoint of estrogenicity without taking into account all factors that play a role in exerting an estrogenic effect on the organ and body.
The most common short-term in vivo assay for estrogenicity/anti-estrogenicity is the uterotrophic assay, suitable for screening ERα agonists and antagonists. The primary endpoint is the uterine wet weight (UWW). An increase in UWW indicates an estrogenic activity of the test compound. Compounds 12 and 19 were screened using the in vivo uterotrophic assay.
The most common short-term in vivo assay for (anti)-estrogenicity is the uterine growth test, suitable for screening ERα agonists and antagonists. The primary endpoint is the uterine wet weight (UWW). An increase in UWW indicates an estrogenic activity of the test compound [43]. Sprague Dawley female rats (170–200 g) were obtained from the animal colony of the National Institute of Research (Cairo, Egypt). The rats were housed in a temperature-controlled room (23–24 °C) with a 12 h light:dark cycle and with free access to food and water. They were allowed to acclimatize to the animal house of the German University in Cairo for at least 1 week before initiating the experiments. All efforts were made to minimize animal discomfort and suffering. Animals were ovariectomized. After 14 days of endogenous hormonal decline, the animals were subcutaneously treated for three days with respective compounds. The animals were randomly allocated to treatment and vehicle groups (n = 6). […] The uterus wet weight was determined.

SMILES: CCN(CC)CCOc1ccc(C(=C(C)c2ccc(F)c(OC)c2)c2ccc(Cl)cc2)cc1 [Compound 28, E/Z-(2-{4-[1-(4-Chlorophenyl)-2-(4-fluoro-3-methoxyphenyl)-propenyl]-phenoxy}-ethyl)-diethyl-amine]
- GI50 (NSCLC cell lines): 2.34 µM
- GI50 (renal cell lines): 2.4 µM
- anti-proliferative activity compared to TAM (MDA-MB-468): equipotent to TAM
- GI50 (prostate cell lines): 2.31 µM

SMILES: COc1ccc(C(C)=C(c2ccc(Cl)cc2)c2ccc(OCCN3CCCCCC3)cc2)cc1F [Compound 19, E/Z-1-(2-{4-[1-(4-Chlorophenyl)-2-(3-fluoro-4-methoxyphenyl)-propenyl]-phenoxy}-ethyl)-azepane]
- uterotrophic effect (in words) (ovariectomized rats): less increase in UWW
- Relative uterus wet weight (ovariectomized rats): 1.15 ± 0.18 g/kg BW

SMILES: COc1ccc(C(C)=C(c2ccc(Cl)cc2)c2ccc(OCCN3CCCCC3)cc2)cc1 [Compound 12, E/Z-1-(2-{4-[1-(4-Chloro-phenyl)-2-(4-methoxy-phenyl)-propenyl]-phenoxy}-ethyl)-piperidine]
- uterotrophic effect (in words) (ovariectomized rats): no uterotrophic effect; also recorded: less increase in UWW
- Relative uterus wet weight (ovariectomized rats): 1.23 ± 0.18 g/kg BW
